Patent US4866038A, “Method of stimulating integumental melanocytes by topical application of analogs of alpha-msh” (University Patents, Inc., priority 1988, dated 1989)
Non-standard residues stand in square brackets, D forms with d. Residues, ends and D or L forms follow the SMILES beside them. dPhg = N[C@@H](C(=O)O)c1ccccc1; Nle = CCCC[C@H](N)C(=O)O

Assays:
[1] = tested on: TA-98 strain of S. typhimurium; test: Ames microbacterial assay; conditions: for REVERTANTS PER PLATE WITH S-9 / REVERTANTS PER PLATE WITHOUT S-9 / […] PLATE WITHOUT S-9: TA-98, spontaneous revertants subtracted
Protocol: The Ames microbacterial assay was used for these tests which were performed both with and without a microsomal enzyme/NADPH generating system. Briefly, this test measures the number of reverse mutations which occur in special histidine-dependent strains of Salmonella typhimurium. Positives (mutations) are scored as the number of revertant cells which are able to form colonies in a histidine-deficient growth medium after exposure to a mutagenic substance.
All substances were dissolved in sterile 0.9% sodium chloride (without preservatives) to concentrations of 10^-2, 10^-3 and 10^-4 Molar. The TA-98 strain of S. typhimurium was used and experiments were performed with and without exposure to S-9 rat liver microsomal enzymes and an NADPH generating system. This enzyme cocktail can metabolically activate some compounds to mutagenic species. In addition to the melanotropins, Doxorubicin (Adriamycin™) was also simultaneously tested. […] It was thus included to act as a positive control. […] For the actual evaluation of revertants, the identity of the specific test compound was blinded.

frog (Rana pipiens) = type: cell-based
Protocol: (§1) Biological effect on in vivo and in vitro melanosome dispersion was examined using the frog (Rana pipiens) and the lizard (Anolis caroliniensis). [See Hadley et al., Science 213:1025-1027(1981)]; similar examinations were conducted with respect to the duration of its ability to stimulate melanosome dispersion in vitro using the skin bioassay as described in Shimume, Endrochrinology, 54:553-560(1954). The in vitro results are depicted in Table I.

[2] = tested on: lizard (Anolis caroliniensis); type: cell-based
Protocol: as §1

[3] = tested on: Mice with some pigmentation on their skin; test: topical Azone cream on mice with some skin pigmentation; type: in vivo, mouse; conditions: 1.8% azone, MSH 0.001% or 0.003%
Text: Example 4 was repeated with compositions comprising alpha-MSH or [Nle^4, D--Phe^7 ]-alpha-MSH in propylene glycol and 1-dodecylazacycloheptan-2-one [a synthetic polar surfactant previously known to enhance transdermal penetration of other compounds. See, e.g., Stoughton, R. B., Arch. Dematol. 118:479(1982); Stoughton, R. B. and W. O. McClure, Drug Devel. Indust. Pharm. 9(4):725(1983); (Azone)]. Although the vehicle was a solid at room temperature, it immediately softened and spread easily when applied to the shaved skin of the mouse.
In this example, the azone concentration was 1.8% and the MSH final concentration was either 0.001% (1mg/100g cream base) or 0.003%.
Mice with some pigmentation on their skin were treated with the same cream as Example 5.
The tails of the treated animals darkened in spite of not being directly treated topically.

C57BL/6JA^y mice = test: topical application in PEG ointment, follicular melanogenesis in the mouse; type: in vivo
Text: An area (2-3 cm^2) of hair on the posterior dorsum of 48-day old mice was plucked; in mice of this age, hair follicles in the posterior dorsum are in the telogen (resting) phase of the hair cycle. Plucking hairs from resting follicles stimulates new hair growth and by 7 days later those hairs being erupting through the skin surface. Mice were fitted with cardboard collars to prevent investigation and spread of the ointment to non-treated areas of the skin and then housed individually in cages. The ointment containing [Nle^4, D-Phe^7 -]alpha-MSH (0.5 ml, 10^-6 M) was applied daily to the plucked area at the time of new hair eruption. A sample of emerging hair was removed prior to topical application of the melanotropin and every 24 hours thereafter for seven days.
Eumelanin was not visible within hairs taken from control mice. […] Only phaeomelanosomes were present in mice treated with the control ointment containing no melanotropin.

C57BL/6JA^y yellow mouse = test: subcutaneous injection, follicular melanogenesis in the yellow mouse; type: in vivo
Text: Alpha-MSH and [Nle^4 D-Phe^7 ]--alpha-MSH were synthesized. Mice (C57BL/6JA^y) originally obtained from the Jackson Laboratories (Bar Harbor, ME) were raised in our laboratory with continuous access to food and water.
Melanotropins induce melanogenesis only during hair growth, and melanosomes are continuously incorporated into cells of the hair shaft as long as the hair remains in the anagen (proliferative) phase of the hair cycle. Eumelanin synthesis in only those hairs currently growing results in the formation of a pattern showing the specific areas on the animal in the anagen phase at the time of hormone injection.

[4] = single injection 0.05 ml, 10^-6 M

CCCC[C@H](NC(C)=O)C(=O)N[C@@H](CCC(=O)O)C(=O)N[C@@H](Cc1c[nH]cn1)C(=O)N[C@H](Cc1ccccc1)C(=O)N[C@@H](CCCNC(=N)N)C(=O)N[C@@H](Cc1c[nH]c2ccccc12)C(=O)NCC(N)=O [Ac--[Nle^4 --D-Phe^7]--alpha-MSH4-10 --NH2]
REVERTANTS PER PLATE WITH S-9 ([1]; 10^-2 M): 0
REVERTANTS PER PLATE WITHOUT S-9 ([1]; 10^-2 M): 0
REVERTANTS PER PLATE WITH S-9 ([1]; 10^-3 M): 0
REVERTANTS PER PLATE WITHOUT S-9 ([1]; 10^-3 M): 0
REVERTANTS PER PLATE WITH S-9 ([1]; 10^-4 M): 0
REVERTANTS PER PLATE WITHOUT S-9 ([1]; 10^-4 M): 0
Relative Potency Frog (frog (Rana pipiens)): 0.02

CCCC[C@H](NC(C)=O)C(=O)N[C@@H](CCC(=O)O)C(=O)N[C@@H](Cc1c[nH]cn1)C(=O)N[C@H](C)C(=O)N[C@@H](CCCNC(=N)N)C(=O)N[C@@H](Cc1c[nH]c2ccccc12)C(=O)NCC(=O)N[C@@H](CCCCN)C(N)=O [Ac--[Nle^4 --D-Ala^7]--alpha-MSH4-11 --NH2] (Ac-[Nle]EH[dA]RWGK-NH2)
Relative Potency Lizard [2]: 0.020
Relative Potency Frog (frog (Rana pipiens)): 0.000080

CCCC[C@H](NC(C)=O)C(=O)N[C@@H](CCC(=O)O)C(=O)N[C@@H](Cc1c[nH]cn1)C(=O)N[C@@H](C(=O)N[C@@H](CCCNC(=N)N)C(=O)N[C@@H](Cc1c[nH]c2ccccc12)C(=O)NCC(=O)N[C@@H](CCCCN)C(N)=O)c1ccccc1 [Ac--[Nle^4 --D-Plg^7]--alpha-MSH4-11 --NH2] (Ac-[Nle]EH[dPhg]RWGK-NH2)
Relative Potency Lizard [2]: 0.0005
Relative Potency Frog (frog (Rana pipiens)): 0.0003

COc1cccc2c1C(=O)c1c(O)c3c(c(O)c1C2=O)C[C@@](O)(C(=O)CO)C[C@@H]3O[C@H]1C[C@H](N)[C@H](O)[C@H](C)O1 [Adriamycin, Doxorubicin]
[…] PLATE WITHOUT S-9 ([1]; 10 µg/ml): 230
[…] PLATE WITHOUT S-9 ([1]; 100 µg/ml): 1940
[…] PLATE WITHOUT S-9 ([1]; 1.0 g/ml): 0
mutagenicity in vitro ([1]; TA-98, with and without S-9): significantly mutagenic

[Nle^4, D--Phe^7 ]--alpha-MSH [[Nle^4, D-Phe^7]-alpha-MSH]
histologic examination of pigment [3]: increased pigment in the areas of non-follicular melancytes
tail colour, tail not directly treated [3]: darkened
time to eumelanin within hair bulbs following application (C57BL/6JA^y mice; topical ointment 0.5 ml, 10^-6 M daily, microscopic examination): ≤ 24 h
melanosomes within follicular melanocytes, electron microscopic examination (C57BL/6JA^y mice; topical ointment daily): presence of eumelanotic melanosomes within follicular melanocytes
coat color change (C57BL/6JA^y yellow mouse; 14 consecutive daily injections): entire coat color was found to be changed
duration of eumelanogenesis after the one injection (C57BL/6JA^y yellow mouse; [4]): 96 h
time to shift from phaeomelanin production to eumelanin synthesis within hair bulbs (C57BL/6JA^y yellow mouse; [4]): 24 h

CCCC[C@H](NC(C)=O)C(=O)N[C@@H](CCC(=O)O)C(=O)N[C@@H](Cc1c[nH]cn1)C(=O)N[C@@H](C)C(=O)N[C@@H](CCCNC(=N)N)C(=O)N[C@@H](Cc1c[nH]c2ccccc12)C(=O)NCC(=O)N[C@@H](CCCCN)C(N)=O [Ac--[Nle^4 --Ala^7]--alpha-MSH4-11 --NH2] (Ac-[Nle]EHARWGK-NH2)
Relative Potency Lizard [2]: 0.009
Relative Potency Frog (frog (Rana pipiens)): 0.02

CCCC[C@H](NC(C)=O)C(=O)N[C@@H](CCC(=O)O)C(=O)N[C@H](Cc1c[nH]cn1)C(=O)N[C@H](Cc1ccccc1)C(=O)N[C@@H](CCCNC(=N)N)C(=O)N[C@@H](Cc1c[nH]c2ccccc12)C(=O)NCC(=O)N[C@@H](CCCCN)C(N)=O [Ac--[Nle^4 --D-His^6 --D-Phe^7]--alpha-MSH4-11 --NH2] (Ac-[Nle]E[dH][dF]RWGK-NH2)
Relative Potency Lizard [2]: 0.053
Relative Potency Frog (frog (Rana pipiens)): 0.0006

CCCC[C@H](NC(C)=O)C(=O)N[C@@H](CCC(=O)O)C(=O)N[C@@H](Cc1c[nH]cn1)C(=O)NCC(=O)N[C@@H](CCCNC(=N)N)C(=O)N[C@@H](Cc1c[nH]c2ccccc12)C(=O)NCC(=O)N[C@@H](CCCCN)C(N)=O [Ac--[Nle^4 --Gly^7]--alpha-MSH4-11 --NH2] (Ac-[Nle]EHGRWGK-NH2)
Relative Potency Lizard [2]: 0.0005
Relative Potency Frog (frog (Rana pipiens)): 0.005
